One experiment deals with HLA-DRB1*0401 (Homo sapiens (Human), UniProt P01903+P01911, A100K/A169T/DEL228-266/F76Y/I96L/K127E/L162R/M171V/N62H/P40V/Q125Y/R42H/S133A/S149N/S66Y/V115G/V209L/W38E). As to the kind of experiment: HLA-DR4 HTRF assay. Type of experiment: binding. To be noted: inhibition of loading of Alexa Fluor 647-labeled Cit-CII peptide onto HLA-DR4 (CLIP cleaved). The source says:
(§1) The screening was made through two sets of HLA-DR/peptide-dependent assays: a peptide-dependent Homogeneous Time Resolved Fluorescence (HTRF) binding assay followed by an HLA-DR dependent, peptide-specific T cell functional assay (HLA-DR4-restricted peptide-specific T cell-based assay hybridoma assay). The HTRF binding assay was designed to measure the ability of the small molecule to inhibit the loading of a fluorescently labeled high-affinity peptide onto HLA-DR peptide binding groove. The peptide-specific T cell functional assay assesses T cell activation resulting from proper peptide presentation onto HLA-DR expressed on the surface of the antigen-presenting cells to the T cell and is used to screen compounds able to inhibit such HLA-DR/peptide-dependent T cell activation.
The HLA-DR4 HTRF assay is based on HTRF technology and designed to measure ability of compounds to prevent loading of high-affinity Alexa Fluor 647-labeled Citrullinated Collagen 111236-1249 peptide (named Cit-CII/AF647, aa1236-1249, LQYM-Cit-ADQAAGGLR; Alexa Fluor 647 dye commercially available from Invitrogen) onto HLA-DRB1*0401. The HTRF assay technology is based on the energy transfer between two fluorophores, a donor and an acceptor, when in close proximity. The HLA-DR4 protein construct was uniquely designed for this assay and has (i) the α and […] subunits fused to human Fc chains and (ii) the invariant chain-associated peptide (CLIP peptide, aa85-101), the universal moderate/low-affinity HLA-DR binder, attached to the beta chain through a HRV3C protease-cleavable linker.
Because of the low stability of peptide free HLA-DR4 heterodimer, the construct was purified and delivered with CLIP peptide attached to the N-terminal of the β chain. The HLA-DR4 heterodimer was pre-treated with 3 μL HRV3C protease (Novagen E71493-3) (˜2 U/μL) per mg of the cleavable protein to cleave CLIP peptide and incubated overnight (>16 hrs) at 4° C. This method yielded at least 80% cleavage and allowed the CLIP peptide to be potentially exchanged with the fluorescently labeled high affinity cit-CII1236-1249 peptide. A batch of […] protein with CLIP cleaved was prepared for multiple experiments and was stable for several months when stored at 4° C.
In this assay, anti-human Fc antibody labeled with Tb-Cryptate probe was used as the donor (commercially available from Cisbio—PAb Anti-human IgG-Tb Cryptate, Cat #61HFCTAB) and high affinity peptide Citrullinated CII (cit-CII) labeled with Alexa 647 fluorophore was utilized as the acceptor. Inhibitors of the exchange of the pre-cleaved CLIP peptide for the high affinity cit-CII1236-1249 peptide onto HLA-DRB1*04:01 caused a decrease in HTRF signal as measured by the ratio of the 665 nm/620 nm emitted signal. Screening compounds were robotically pre-dispensed (150 nL, Hummingbird, DigiLab/CyBio AG) onto black, round bottom, nontreated, 1536-well assay plates (Corning #3939), were incubated with 3 nM HLA-DR4 (with CLIP cleaved) plus 1 nM Human IgG-Tb (anti-Fc-Tb) Antibody for 45 min prior to addition of 40 nM Cit-CII peptide labeled with Alexa-647. The negative control was DMSO plus 1 nM Human IgG-Tb (anti-Fc-Tb) Antibody, incubated for 45 minutes before addition of 40 nM Cit-CII peptide labeled with Alexa-647. The positive control was DMSO plus 3 nM HLA-DR4 (with CLIP cleaved) plus 1 nM Human IgG-Tb (anti-Fc-Tb) Antibody with 40 nM Cit-CII peptide labeled with Alexa-647 added after a 45-minute incubation. Plates were centrifuged at 1000 rpm for 1 minute and then incubated at 37° C., at 90% relative humidity for 90 minutes. After incubation, plates were read on a spectrophotometer, the Pherastar FS (BMG Labtech), in HTRF mode. The HTRF ratio as well as percent inhibition was calculated. Curve fitting and IC50 calculation for dose response data was performed by Microsoft Excel, 3DX (Janssen proprietary software) or Graphpad Prism (Graphpad Software, San Diego, CA). […]
A general note: In TR-FRET formats the signal depends on donor and acceptor labels being close together.

In experiment [1] the test system is HLA-DR4 restricted mouse T cell hybridoma line (DR4.CII.36.8) with HLA-DRB1*04:01-expressing Boleth cells. As to the kind of experiment: HLA-DR4-restricted peptide-specific T cell-based assay (hybridoma assay). To be noted: Mus musculus, T-cell, 6 h, inhibition of IL-2 production, CII259-273 peptide presented by Boleth cells.
Text: as §1
HLA-DR4-Restricted Peptide-Specific T Cell-Based Assay (Hybridoma Assay)
The hybridoma assay was used to measure compound inhibition of TL-2 production from an HLA-DR4 restricted mouse T cell hybridoma line (DR4.CII.36.8) that was antigen-specific for collagen II259-273 (CII259-273) peptide when presented with an HLA-DR4 expressing Antigen Presenting Cell (APC) cell line (i.e., Boleth).
To the HLA-DRB1*04:01-expressing B cell line (Boleth cell line from International Histocompatibility Working Group (IHWG), ref #IHW09031) was presented the collagen II 259-273 peptide (CII259-273, GIAGFKGEQGPKGEP) to mouse T cell hybridoma (DR4.CII.36.8 T cell hybridoma; clone 36.8, expressing a CII259-273-specific, HLA-DRB1*04:01-restricted T cell receptor). Upon proper CII259-273 peptide presentation, the T cell hybridoma was activated and thus produced IL-2 cytokine, whose level in the cell culture supernatant was detected using mouse IL-2 AlphaLISA kit (Perkin Elmer, Cat: AL511F).
This assay was performed in a 384-well plate (polypropylene V-bottom Greiner bio-one, ref #784075) by: (i) pre-incubation of 20 μL of 1.25 million/mL Boleth cells (25,000 cells) resuspended in DMEM/1% fetal calf serum (FCS; Gibco, ref #16140-071) with 20 μL of 2.5× final concentration of compound of interest in DMEM/1% serum/0.75% DMSO at 37° C. for 1 hr in the incubator, then (ii) 10 μL of 5 million/mL (50,000 cells) DR4.CII.36.8 T cell hybridoma cells resuspended in DMEM/1% FCS was added and incubated for 6 h at 37° C. in the incubator. Supernatant was then collected and mouse IL-2 detected using AlphaLISA kit (ref #AL511F). Compounds were tested in duplicate, with 8-point titration. Mean±SD of AlphaLISA units at each compound concentration was used for compound IC50 calculation. The negative control for this experiment was run without peptide stimulation and used a DMSO vehicle wherein no compound of interest was added. The positive control was run with peptide stimulation and used a DMSO vehicle wherein no compound of interest was added. Both the negative and positive controls were run in 8 replicates each. Curve fitting and IC50 calculation for dose response data was performed by GraphPad software 6 or higher (GraphPad Software, San Diego, CA). Dose response data was plotted versus the log of compound concentration and IC50 was determined using 4-parameter logistic (4-PL) curve fitting.

The source of these data is US12516038B2, “Inhibitors of antigen presentation by HLA-DR” (Janssen Pharmaceutica NV, priority 2020, dated 2026).

pIC50: −log10 of the molar value.

In general, pIC50 refers to the negative decadic logarithm of the IC50, by convention in mol/L. Read a low pIC50 as a high IC50. As for `NC(=O)c1ccc([C@H](Oc2ccc3c(c2)OCCC3=O)c2ccncc2N)cc1` (single isomer, unassigned) [Example 27b, (*S)-4-((3-aminopyridin-4-yl)((4-oxochroman-7-yl)oxy)methyl)benzamide], the pIC50 is 5.19 on HLA-DRB1*0401 and less than 4.82 in experiment [1].
Taken in the same sequence, the figures for `Cc1cc([C@@H](Oc2ccc3c(c2C)OC(C)(C)CC3=O)c2ccc(C(N)=O)cc2)cc(C)n1` (single isomer, unassigned) [Example 112b, (*S)-4-((2,6-dimethylpyridin-4-yl)((2,2,8-trimethyl-4-oxochroman-7-yl)oxy)methyl)benzamide] were 6.22 and 5.40.
For `Cc1c(O[C@@H](c2ccc(C(N)=O)cc2)c2cccc(C#N)c2)c(F)cc2c1OCCC2=O` (single isomer, unassigned) [Example 92b, (*S)-4-((3-cyanophenyl)((6-fluoro-8-methyl-4-oxochroman-7-yl)oxy)methyl)benzamide], in that order: 6.72 and less than 4.82.
As for `O=C1CCOc2cc(O[C@@H](c3ccncc3)c3ccc(OCc4ccccc4)cc3)ccc21` (single isomer, unassigned) [Example 16a, (*R)-7-((4-(benzyloxy)phenyl)(pyridin-4-yl)methoxy)chroman-4-one], the values for the pIC50 (against HLA-DRB1*0401; in experiment [1]) were 5.09 and 4.92, respectively.
Taken in the same sequence, the figures for `CC(C)c1c(O[C@@H](c2ccc(C(N)=O)cc2)c2ccc(C(=O)O)cc2)ccc2c1OCCC2=O` (single isomer, unassigned) [Example 108b, (*S)-4-((4-carbamoylphenyl)((8-isopropyl-4-oxochroman-7-yl)oxy)methyl)benzoic acid] were 6.09 and 5.57.
For `Cc1c(O[C@@H](c2ccncc2)c2cccc(F)c2)c(F)cc2c1OCCC2=O` (single isomer, unassigned) [Example 96b, (*S)-6-fluoro-7-((3-fluorophenyl)(pyridin-4-yl)methoxy)-8-methylchroman-4-one], the results for the negative-log IC50 (pIC50) (at HLA-DRB1*0401; in experiment [1]) were 6.33 and less than 4.82, respectively.
For `N#Cc1ccc(C(Oc2ccc3c(c2)OCCC3=O)c2ccncc2)cc1` (racemic) [Example 10, (R,S)-4-(((4-Oxochroman-7-yl)oxy)(pyridin-4-yl)methyl)benzonitrile], in that order: 6.11 and 5.06.
In the case of `Cc1c(O[C@@H]2CCc3cnccc32)ccc2c1OCCC2=O` (single isomer, unassigned) [Example 124a, (*R)-7-((6,7-dihydro-5H-cyclopenta[c]pyridin-5-yl)oxy)-8-methylchroman-4-one], the figures for the pIC50 (against HLA-DRB1*0401; in experiment [1]) were 6.24 and 4.85, respectively.
With `Cc1c(OC2CCCc3cc(C(N)=O)ccc32)ccc2c1OCCC2=O` (racemic) [Example 123, (R,S)-5-((8-Methyl-4-oxochroman-7-yl)oxy)-5,6,7,8-tetrahydronaphthalene-2-carboxamide], the pIC50 on HLA-DRB1*0401 is 6.28; in experiment [1], 4.82.
Taken in the same sequence, the figures for `NC(=O)c1ccccc1[C@@H](Oc1ccc2c(c1)OCCC2=O)c1ccncc1` (single isomer, unassigned) [Example 8b, (*S)-2-(((4-Oxochroman-7-yl)oxy)(pyridin-4-yl)methyl)benzamide] were 6.09 and 5.19.
As to `N#Cc1cc(O[C@H](c2ccncc2)c2ccc(C(N)=O)cc2)cc2c1C(=O)CCO2` (single isomer, unassigned) [Example 101b, (*S)-4-(((5-cyano-4-oxochroman-7-yl)oxy)(pyridin-4-yl)methyl)benzamide], the pIC50 at HLA-DRB1*0401 is 5.89; in experiment [1] it was 4.92.
In the case of `N#Cc1ccc([C@H](Oc2ccc3c(c2)OCCC3=O)c2ccncc2)cc1` (single isomer, unassigned) [Example 10b, (*S)-4-(((4-oxochroman-7-yl)oxy)(pyridin-4-yl)methyl)benzonitrile], the pIC50 against HLA-DRB1*0401 is 6.04; in experiment [1] it was less than 4.82.
For `Cc1cc([C@H](Oc2ccc3c(c2C#N)OCCC3=O)c2ccc(C(N)=O)cc2)cc(C)n1` (single isomer, unassigned) [Example 110a, (*R)-4-(((8-cyano-4-oxochroman-7-yl)oxy)(2,6-dimethylpyridin-4-yl)methyl)benzamide], in that order: 6.26 and 6.92.
With `Cc1c(OC(c2ccncc2)c2ccc(C(N)=O)cc2)ccc2c1OC(C)(C)CC2=O` (racemic) [Example 113, (R,S)-4-(pyridin-4-yl((2,2,8-trimethyl-4-oxochroman-7-yl)oxy)methyl)benzamide], the pIC50 was 6.09 on HLA-DRB1*0401 and 6.00 in experiment [1].
Taken in the same sequence, the figures for `CC(C)c1c(O[C@H](c2ccc(C(N)=O)cc2)c2ccc(C(=O)O)cc2)ccc2c1OCCC2=O` (single isomer, unassigned) [Example 108a, (*R)-4-((4-carbamoylphenyl)((8-isopropyl-4-oxochroman-7-yl)oxy)methyl)benzoic acid] were 6.07 and less than 4.82.
Taken in the same sequence, the figures for `O=C1CCOc2cc(OC(c3ccncc3)c3ccccn3)ccc21` (racemic) [Example 6, (R,S)-7-(Pyridin-2-yl(pyridin-4-yl)methoxy)chroman-4-one] were 5.74 and 5.85.
